Where two headings read alike, the source gives them in different places.
Tested on: Scleraxis (Scx) gene transcriptional activation in TT-D6 Scx-luciferase (ScxL) cell line
Test: SCX-LUC in vitro assay (Scx-luciferase reporter)
Format: cell-based
Settings: Mus musculus
[1] = 96 h, Table 3, four days, read-out: Scx-Luc (EC50 μM)
[2] = assays described above (Scx-Luc and ex vivo), read-out: EC50 in the assays described above

| Compound | EC50 [1] | EC50 [2] |
| --- | --- | --- |
| COc1c(-c2ccc(S(=O)(=O)NC3CC(O)(C(F)(F)F)C3)cc2C)ccc2[nH]nc(N)c12 (centres unmarked) [Example 70, 4-(3-amino-4-methoxy-1H-indazol-5-yl)-N-((1s,3s)-3-hydroxy-3-(trifluoromethyl)cyclobutyl)-3-methylbenzenesulfonamide] | 0.282 µM |  |
| Nc1n[nH]c2ccc(-c3ccc(S(=O)(=O)NC4CC(F)(F)C4)cc3Cl)c(Cl)c12 [Example 67, 4-(3-amino-4-chloro-1H-indazol-5-yl)-3-chloro-N-(3,3-difluorocyclobutyl)benzenesulfonamide] | 0.535 µM |  |
| Cc1cc(S(=O)(=O)NC2CC(O)(C(F)(F)F)C2)ccc1-c1ccc2[nH]nc(N)c2c1F (centres unmarked) [Example 71, 4-(3-amino-4-fluoro-1H-indazol-5-yl)-N-((1s,3s)-3-hydroxy-3-(trifluoromethyl)cyclobutyl)-3-methylbenzenesulfonamide] | 0.108 µM |  |
| Cc1cc(S(=O)(=O)N2CCC(O)(C(F)(F)F)C2)ccc1-c1ccc2[nH]nc(N)c2c1C (centres unmarked) [Example 62, 1-((4-(3-amino-4-methyl-1H-indazol-5-yl)-3-methylphenyl)sulfonyl)-3-(trifluoromethyl)pyrrolidin-3-ol] | 0.63 µM |  |
| Cc1cc(S(=O)(=O)N[C@@H]2CCC[C@@H](C#N)C2)ccc1-c1ccc2[nH]nc(N)c2c1C [Example 26, 4-(3-amino-4-methyl-1H-indazol-5-yl)-N-((1R,3R)-3-cyanocyclohexyl)-3-methylbenzenesulfonamide] | 0.745 µM |  |
| Cc1cc(S(=O)(=O)N[C@@H]2CCC[C@H]2O)ccc1-c1ccc2[nH]nc(N)c2c1C [Example 15, 4-(3-amino-4-methyl-1H-indazol-5-yl)-N-((1R,2R)-2-hydroxycyclopentyl)-3-methylbenzenesulfonamide] | 3.05 µM |  |
| Cc1cc(S(=O)(=O)N[C@H]2C[C@@H](O)C2)ccc1-c1ccc2[nH]nc(N)c2c1Cl [Example 30, 4-(3-amino-4-chloro-1H-indazol-5-yl)-N-((1s,3s)-3-hydroxycyclobutyl)-3-methylbenzenesulfonamide] | 0.752 µM |  |
| Cc1cc(S(=O)(=O)N[C@H]2C[C@H](O)C2)ccc1-c1ccc2[nH]nc(N)c2c1C [Example 9, 4-(3-amino-4-methyl-1H-indazol-5-yl)-N-((1r,3r)-3-hydroxycyclobutyl)-3-methylbenzenesulfonamide] | 4.96 µM |  |
| Nc1n[nH]c2ccc(-c3ccc(S(=O)(=O)N4CC[C@@H](O)C4)cc3F)c(Cl)c12 [Example 6, (R)-1-((4-(3-amino-4-chloro-1H-indazol-5-yl)-3-fluorophenyl)sulfonyl)pyrrolidin-3-ol] | 4.41 µM |  |
| Nc1n[nH]c2ccc(-c3ccc(S(=O)(=O)NC4CC(O)(C(F)(F)F)C4)cc3Cl)c(F)c12 (centres unmarked) [Example 72, 4-(3-amino-4-fluoro-1H-indazol-5-yl)-3-chloro-N-((1s,3s)-3-hydroxy-3-(trifluoromethyl)cyclobutyl)benzenesulfonamide] | 0.177 µM |  |
| Nc1n[nH]c2ccc(-c3ccc(S(=O)(=O)N4CC(F)(F)C[C@H]4CO)cc3F)c(Cl)c12 [Example 47, (S)-(1-((4-(3-amino-4-chloro-1H-indazol-5-yl)-3-fluorophenyl)sulfonyl)-4,4-difluoropyrrolidin-2-yl)methanol] | 0.986 µM |  |
| Cc1cc(S(=O)(=O)N2CCC(F)(F)C2)ccc1-c1ccc2[nH]nc(N)c2c1C [Example 77, 5-(4-((3,3-difluoropyrrolidin-1-yl)sulfonyl)-2-methylphenyl)-4-methyl-1H-indazol-3-amine] | 0.692 µM |  |
| Cc1c(-c2ccc(S(=O)(=O)N[C@@H]3CCC[C@@H]3O)cc2Cl)ccc2[nH]nc(N)c12 [Example 39, 4-(3-amino-4-methyl-1H-indazol-5-yl)-3-chloro-N-((1R,2S)-2-hydroxycyclopentyl)benzenesulfonamide] | 0.362 µM |  |
| Cc1cc(S(=O)(=O)N2CC(F)=C[C@H]2CO)ccc1-c1ccc2[nH]nc(N)c2c1C [Example 33, (S)-(1-((4-(3-amino-4-methyl-1H-indazol-5-yl)-3-methylphenyl)sulfonyl)-4-fluoro-2,5-dihydro-1H-pyrrol-2-yl)methanol] | 0.17 µM |  |
| Cc1cc(S(=O)(=O)NC2CCN(C)CC2)ccc1-c1ccc2[nH]nc(N)c2c1C [4-(3-amino-4-methyl-1H-indazol-5-yl)-3-methyl-N-(1-methylpiperidin-4-yl)benzenesulfonamide] |  | > 10 µM |
| Cc1cc(S(=O)(=O)N2CC(F)(F)C[C@H]2CO)ccc1-c1ccc2[nH]nc(N)c2c1F [Example 44, (S)-(1-((4-(3-amino-4-fluoro-1H-indazol-5-yl)-3-methylphenyl)sulfonyl)-4,4-difluoropyrrolidin-2-yl)methanol] | 1.19 µM |  |
| Cc1cc(S(=O)(=O)N2C[C@@H](F)[C@@H](F)C2)ccc1-c1ccc2[nH]nc(N)c2c1C [Example 82, Meso-5-(4-(((3R,4S)-3,4-difluoropyrrolidin-1-yl)sulfonyl)-2-methylphenyl)-4-methyl-1H-indazol-3-amine] | 0.524 µM |  |
| Cc1cc(S(=O)(=O)N[C@@H]2CCC[C@@H]2O)ccc1-c1ccc2[nH]nc(N)c2c1F [Example 75, 4-(3-amino-4-fluoro-1H-indazol-5-yl)-N-((1R,2S)-2-hydroxycyclopentyl)-3-methylbenzenesulfonamide] | 0.359 µM |  |

| Compound | EC50 [1] | EC50 [2] |
| --- | --- | --- |
| Nc1n[nH]c2ccc(-c3ccc(S(=O)(=O)N4CC(F)(F)C[C@H]4CO)cc3Cl)c(Cl)c12 [Example 53, (S)-(1-((4-(3-amino-4-chloro-1H-indazol-5-yl)-3-chlorophenyl)sulfonyl)-4,4-difluoropyrrolidin-2-yl)methanol] | 0.74 µM |  |
| Nc1n[nH]c2ccc(-c3ccc(S(=O)(=O)N4CC(F)(F)C[C@H]4CO)cc3Cl)c(F)c12 [Example 46, (S)-(1-((4-(3-amino-4-fluoro-1H-indazol-5-yl)-3-chlorophenyl)sulfonyl)-4,4-difluoropyrrolidin-2-yl)methanol] | 1.05 µM |  |
| Cc1c(-c2ccc(S(=O)(=O)N3CCC(O)C3)cc2F)ccc2[nH]nc(N)c12 (centres unmarked) [Example 3, 1-((4-(3-amino-4-methyl-1H-indazol-5-yl)-3-fluorophenyl)sulfonyl)pyrrolidin-3-ol] | 2.83 µM |  |
| Cc1c(-c2ccc(S(=O)(=O)N3CCC[C@H]3CO)cc2Cl)ccc2[nH]nc(N)c12 [Example 38, (S)-(1-((4-(3-amino-4-methyl-1H-indazol-5-yl)-3-chlorophenyl)sulfonyl)pyrrolidin-2-yl)methanol] | 2.04 µM |  |
| Cc1cc(S(=O)(=O)N[C@H]2CCC[C@]2(C)O)ccc1-c1ccc2[nH]nc(N)c2c1C [Example 58, 4-(3-amino-4-methyl-1H-indazol-5-yl)-N-((1S,2S)-2-hydroxy-2-methylcyclopentyl)-3-methylbenzenesulfonamide] | 1.33 µM |  |
| Cc1cc(S(=O)(=O)N[C@H]2CCC[C@@]2(C)O)ccc1-c1ccc2[nH]nc(N)c2c1C [Example 59, 4-(3-amino-4-methyl-1H-indazol-5-yl)-N-((1S,2R)-2-hydroxy-2-methylcyclopentyl)-3-methylbenzenesulfonamide] | 3.32 µM |  |
| Cc1cc(S(=O)(=O)N2CCC(C)(O)C2)ccc1-c1ccc2[nH]nc(N)c2c1C (centres unmarked) [Example 57, 1-((4-(3-amino-4-methyl-1H-indazol-5-yl)-3-methylphenyl)sulfonyl)-3-methylpyrrolidin-3-ol] | 2.71 µM |  |
| Cc1cc(S(=O)(=O)N2CCC(F)(F)CC2)ccc1-c1ccc2[nH]nc(N)c2c1C [Example 80, 5-(4-((4,4-difluoropiperidin-1-yl)sulfonyl)-2-methylphenyl)-4-methyl-1H-indazol-3-amine] | 2.53 µM |  |
| COc1c(-c2ccc(S(=O)(=O)N3CC(F)(F)C[C@H]3CO)cc2C)ccc2[nH]nc(N)c12 [Example 85, (S)-(1-((4-(3-amino-4-methoxy-1H-indazol-5-yl)-3-methylphenyl)sulfonyl)-4,4-difluoropyrrolidin-2-yl)methanol] | 1.79 µM |  |
| Cc1c(-c2ccc(S(=O)(=O)N3CC(C)(C)C3)cc2Cl)ccc2[nH]nc(N)c12 [Example 1, 5-(2-chloro-4-((3,3-dimethylazetidin-1-yl)sulfonyl)phenyl)-4-methyl-1H-indazol-3-amine] | 0.773 µM |  |
| Cc1cc(S(=O)(=O)N2C[C@H](O)[C@@H](F)C2)ccc1-c1ccc2[nH]nc(N)c2c1C [(3S,4S)-1-((4-(3-amino-4-methyl-1H-indazol-5-yl)-3-methylphenyl)sulfonyl)-4-fluoropyrrolidin-3-ol] |  | > 10 µM |
| Nc1n[nH]c2ccc(-c3ccc(S(=O)(=O)N[C@@H]4CCC[C@@H]4O)cc3Cl)c(F)c12 [Example 76, 4-(3-amino-4-fluoro-1H-indazol-5-yl)-3-chloro-N-((1R,2S)-2-hydroxycyclopentyl)benzenesulfonamide] | 0.171 µM |  |
| Cc1cc(S(=O)(=O)N2CC(F)(F)C[C@H]2C(N)=O)ccc1-c1ccc2[nH]nc(N)c2c1C [Example 81, (S)-1-((4-(3-amino-4-methyl-1H-indazol-5-yl)-3-methylphenyl)sulfonyl)-4,4-difluoropyrrolidine-2-carboxamide] | 0.372 µM |  |
| Cc1c(-c2ccc(S(=O)(=O)N3CC(F)(F)C[C@H]3CO)cc2Cl)ccc2[nH]nc(N)c12 [Example 56, (S)-(1-((4-(3-amino-4-methyl-1H-indazol-5-yl)-3-chlorophenyl)sulfonyl)-4,4-difluoropyrrolidin-2-yl)methanol] | 0.764 µM |  |
| Cc1c(-c2ccc(S(=O)(=O)N3CC[C@@H](O)C3)cc2Cl)ccc2[nH]nc(N)c12 [Example 2, (R)-1-((4-(3-amino-4-methyl-1H-indazol-5-yl)-3-chlorophenyl)sulfonyl)pyrrolidin-3-ol] | 0.908 µM |  |
| Cc1cc(S(=O)(=O)N(C)C2CC(O)(C(F)(F)F)C2)ccc1-c1ccc2[nH]nc(N)c2c1C (centres unmarked) [Example 83, 4-(3-amino-4-methyl-1H-indazol-5-yl)-N-((1s,3s)-3-hydroxy-3-(trifluoromethyl)cyclobutyl)-N,3-dimethylbenzenesulfonamide] | 0.467 µM |  |
| Nc1n[nH]c2ccc(-c3ccc(S(=O)(=O)N[C@H]4C[C@](O)(C(F)(F)F)C4)cc3Cl)c(Cl)c12 [Example 64, 4-(3-amino-4-chloro-1H-indazol-5-yl)-3-chloro-N-((1s,3s)-3-hydroxy-3-(trifluoromethyl)cyclobutyl)benzenesulfonamide] | 0.474 µM |  |

From patent US10112907B2, “Substituted indazoles for treating tendon and/or ligament injuries” (NOVARTIS AG, priority 2016, dated 2018)
